Data on three compounds can be found in the NIST ThermoML archive (doi:10.1021/je049867t).

± gives the expanded uncertainty stated by the source.

The conditions of data set [1]: Liquid.
A short description of data set [2]: refractive index (Na D-line) (dimensionless). To be noted: 293.15 K; 101.33 kPa; Liquid; Standard Abbe refractometry.
[3] abbreviates: 308.15 K, Ebulliometric method (Recirculating still).
[4] abbreviates: 318.15 K, Ebulliometric method (Recirculating still).
[5] abbreviates: 323.15 K, Ebulliometric method (Recirculating still).

Usually vapor or sublimation pressure stands for the equilibrium pressure above the liquid or solid. For orientation: refractive index means the speed of light in vacuum divided by its phase velocity in the sample. As to `COC(C)(C)C` [2-methoxy-2-methylpropane], the results for the “vapor or sublimation pressure” value in data set [1] (setting [3]), in data set [1] (setting [4]) and in data set [1] (setting [5]) were 49.48 ± 0.15 kPa, 71.41 ± 0.17 kPa and 84.91 ± 0.18 kPa, respectively. Also, in data set [2], the refractive index is 1.3698 ± 0.0007.
Turning to `CCC(C)(C)OC` [2-methoxy-2-methylbutane], the “vapor or sublimation pressure” value in data set [1] (298.02 K) stood at 10 ± 0.09 kPa; in data set [1] (306.98 K) it was 15 ± 0.1 kPa; in data set [1] (318.15 K), 23.99 ± 0.19 kPa; in data set [1] (319.2 K), 25 ± 0.13 kPa; in data set [1] (327.9 K) it was 35 ± 0.15 kPa; in data set [1] (334.78 K) it was 45 ± 0.18 kPa. Further, the “vapor or sublimation pressure” value in data set [1] (340.52 K) is on record as 55 ± 0.21 kPa; in data set [1] (345.48 K) it was 65 ± 0.24 kPa; in data set [1] (349.85 K), 75 ± 0.27 kPa; in data set [1] (353.81 K), 85 ± 0.3 kPa; in data set [1] (355.64 K) it was 90 ± 0.32 kPa. The refractive index in data set [2] is on record as 1.3862 ± 0.0009.
`Cc1ccccc1` [toluene]: the results for the “vapor or sublimation pressure” value in data set [1] (setting [3]), in data set [1] (setting [4]) and in data set [1] (setting [5]) were 6.18 ± 0.1 kPa, 9.88 ± 0.1 kPa and 12.28 ± 0.1 kPa, respectively. The refractive index in data set [2] is given as 1.4965 ± 0.0007.
